For nine compounds, SI, EC50 and CC50 results are on record in ChEMBL document CHEMBL1129617, “Synthesis and antiretroviral evaluation of new alkoxy and aryloxy phosphate derivatives of 3'-azido-3'-deoxythymidine” (J Med Chem, 1996).

The nature of test [1]: Selectivity index in the HIV-1 infected cell cultures. Type of test: functional.
In test [2] the test system is CCRF-CEM. The experiment in a line: Concentration required to reduce 50% of the number of CEM/O cells in the HIV-1 infected cell cultures. As to conditions: Homo sapiens. The test is classed as functional, cell-based.
Test [3] has as its system CEM-TK(+). The experiment in a line: Concentration required to reduce 50% of the number of CEM/TK cells in the HIV-2 infected cell cultures. Particulars: Homo sapiens. The test is classed as functional, cell-based.
The test system of test [4] is CCRF-CEM. The test is described as follows: Concentration required to reduce 50% of the number of CEM/O cells in the HIV-2 infected cell cultures. As to conditions: Homo sapiens. Type of test: functional, cell-based.
Test [5] relates to CCRF-CEM. The experiment in a line: Concentration required to reduce 50% of the number of CEM/O cells in the mock infected cell cultures. Type of test: functional. As to conditions: Homo sapiens.

The term EC50 denotes the concentration needed to bring the measured effect to its halfway point. A higher EC50 goes with weaker potency. One may read the CC50 as the concentration that lowers cell viability or growth by half. A higher CC50 goes with better tolerance by the cells.

The compound `CCCCCCCCCCCCOCCOP(=O)(O)OCC1OC(n2cc(C)c(=O)[nH]c2=O)CC1N=[N+]=[N-]` (stereo not drawn) came in with an SI in test [1] of 669. Moreover, the EC50 in test [2] was 115 nM; in test [3] it was over 50000 nM; in test [4], 133 nM. Also, in test [5], it took 76900 nM to reach half-maximal cytotoxicity (CC50).

With `CCCCCCCCCCCCOC[C@H](C)OP(=O)(O)OCC1OC(n2cc(C)c(=O)[nH]c2=O)CC1N=[N+]=[N-]` (stereo partly drawn), the SI in test [1] worked out at 440. Also, the EC50 is 200 nM in test [2], over 50000 nM in test [3] and 260 nM in test [4]. This compound yielded a CC50 in test [5] of 88000 nM.

The compound `Cc1cn(C2CC(N=[N+]=[N-])C(COP(=O)(O)OCCOc3cccc4ccccc34)O2)c(=O)[nH]c1=O` (stereo not drawn) had an SI in test [1] of over 9615. Moreover, the values for the EC50 in test [2], in test [3] and in test [4] were 13 nM, over 125000 nM and 28 nM, respectively. This compound registered a CC50 in test [5] of over 125000 nM.

With `CCCCCCCCCCCCO[C@@H](C)COP(=O)(O)OC[C@H]1O[C@@H](n2cc(C)c(=O)[nH]c2=O)C[C@@H]1N=[N+]=[N-]`, the SI in test [1] worked out at 295. Further, the EC50 in test [2] was 320 nM; in test [3] it was over 50000 nM; in test [4], 350 nM. In test [5], this compound returned a CC50 of 94500 nM.

In test [1], `CCCCCCCCCCCCOC[C@@H](C)OP(=O)(O)OCC1OC(n2cc(C)c(=O)[nH]c2=O)CC1N=[N+]=[N-]` (stereo partly drawn) had an SI of 44. The EC50 is 2170 nM in test [2], over 50000 nM in test [3] and 2670 nM in test [4]. The same compound yielded a CC50 in test [5] of 95900 nM.

`Cc1cn(C2CC(N=[N+]=[N-])C(COP(=O)(O)OCCOc3ccc4ccccc4c3)O2)c(=O)[nH]c1=O` (stereo not drawn) had an SI in test [1] of over 8333. For the same compound, the EC50 is 15 nM in test [2], over 125000 nM in test [3] and 20 nM in test [4]. The compound also had a CC50 in test [5] of over 125000 nM.

On to `Cc1cn(C2CC(N=[N+]=[N-])C(COP(=O)(O)OCCOc3ccccc3)O2)c(=O)[nH]c1=O` (stereo not drawn), for which the SI in test [1] was over 6250. Further, the EC50 in test [2] was 20 nM; in test [3] it was over 125000 nM; in test [4], 18 nM. For the same compound, the 50% cytotoxic concentration (CC50) in test [5] is over 125000 nM.

Compound `CCCCCCCCCCCCO[C@H](C)COP(=O)(O)OCC1O[C@@H](n2cc(C)c(=O)[nH]c2=O)C[C@@H]1N=[N+]=[N-]` (single isomer, unassigned) showed an SI in test [1] of 186. Besides, the EC50 is 500 nM in test [2], over 50000 nM in test [3] and 500 nM in test [4]. The compound also had a CC50 in test [5] of 93000 nM.

`Cc1cn([C@H]2C[C@H](N=[N+]=[N-])[C@@H](CO)O2)c(=O)[nH]c1=O` [ZIDOVUDINE]: in test [1], the SI is recorded as over 16666. In addition, the EC50 in test [3] is over 100000 nM. Also, in test [5], the CC50 was over 100000 nM.
